# Data: article PMC4865917, “Positive Allosteric Modulation of the Glucagon-like Peptide-1 Receptor by Diverse Electrophiles” (The Journal of Biological Chemistry, 2016)
# Where two headings read alike, the source gives them in different places.
# Legend:
# human GLP-1R [1] = target: T1, human GLP-1R (Homo sapiens, UniProt P43220, C347A); experiment: HTRF cAMP accumulation, HEK293 cells; format: cell-based
# T1 construct: gene GLP1R; full-length receptor expressed in HEK293 cells; C347A mutant carries a 1xFLAG tag
# T1 sequence (P43220 24-463 C347A): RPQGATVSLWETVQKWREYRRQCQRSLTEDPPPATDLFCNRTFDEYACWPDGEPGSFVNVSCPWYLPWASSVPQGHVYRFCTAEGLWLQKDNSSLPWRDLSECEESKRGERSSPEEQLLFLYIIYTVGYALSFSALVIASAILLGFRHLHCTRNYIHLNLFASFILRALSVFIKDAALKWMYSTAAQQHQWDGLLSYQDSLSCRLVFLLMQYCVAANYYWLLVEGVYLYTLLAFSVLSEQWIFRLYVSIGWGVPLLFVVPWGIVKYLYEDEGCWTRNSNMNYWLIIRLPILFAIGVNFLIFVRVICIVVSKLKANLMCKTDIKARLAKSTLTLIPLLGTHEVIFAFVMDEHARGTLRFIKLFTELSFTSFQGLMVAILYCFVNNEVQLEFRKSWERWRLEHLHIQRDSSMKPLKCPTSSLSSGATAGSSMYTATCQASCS
# Description: (§1) HTRF cAMP accumulation, HEK293 cells on human GLP-1R
# human GLP-1R [2] = target: T2, human GLP-1R (Homo sapiens, UniProt P43220); experiment: HTRF cAMP accumulation, HEK293 cells; format: cell-based
# T2 construct: gene GLP1R; full-length receptor expressed in HEK293 cells; C347A mutant carries a 1xFLAG tag
# T2 sequence (P43220 24-463): as the sequence (P43220 24-463 C347A) above, with A324C counted along it
# Description: as §1
# human CatL = target: T3, human CatL (Homo sapiens, UniProt P07711); experiment: fluorogenic Z-Phe-Arg-AMC hydrolysis; format: biochemical
# T3 construct: gene CTSL; commercial cathepsin L (Calbiochem)
# T3 sequence (P07711 114-288 limits assumed): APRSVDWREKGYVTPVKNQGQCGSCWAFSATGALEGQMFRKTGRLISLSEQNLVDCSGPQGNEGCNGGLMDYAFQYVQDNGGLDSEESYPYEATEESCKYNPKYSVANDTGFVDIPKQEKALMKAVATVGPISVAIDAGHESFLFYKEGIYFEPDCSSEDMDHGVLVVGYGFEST
# T3 sequence (P07711 292-333 limits assumed): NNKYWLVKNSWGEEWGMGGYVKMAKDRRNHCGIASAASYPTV
# human GLP-1R [3] = target: T2, human GLP-1R; experiment: anti-FLAG immunoprecipitation, PAGE fluorography; format: cell-based; conditions: 500 nM [3H]BETP, 2 h, 37 °C, GLP-1R-3xFLAG in HEK293; covalent; labelled compound
# [4] = read-out: EC50, C347A (nM) (S.D., n)
# [5] = read-out: Compound, EC50 WT (nM) (S.D., n)
# [6] = read-out: Compound, EC50, C347A (nM) (S.D., n)
# [7] = read-out: Compound, EC50, WT (nM) (S.D., n)
SMILES,EC50 (human GLP-1R [1]; [4]) [nM],EC50 (human GLP-1R [2]; [5]) [nM],"IC50 (human CatL; read-out: CatL,^c IC50) [µM]",EC50 (human GLP-1R [1]; [6]) [nM],also measured
"O=C(NCc1ccccc1)[C@H](Cc1ccccc1)NC(=O)[C@H]1O[C@@H]1C(=O)NCCc1ccc(O)cc1 [CAA0225, (2S,3S)-N2-[(1S)-1-benzyl-2-(benzylamino)-2-oxo-ethyl]-N3-[2-(4-hydroxyphenyl)ethyl]oxirane-2,3-dicarboxamide, reference compound]",,,,,IC50 (human CatL; read-out: IC50): 0.006 µM
Cc1nnc(Sc2nc3cc(Cl)c(Cl)cc3nc2C(F)(F)F)s1 [compound 1],> 30000,860,,,
CC(C)(C)Nc1nc2cc(Cl)c(Cl)cc2nc1S(C)(=O)=O [compound 2],> 30000,25,,,
CC1(C)CC(=O)c2c(S(C)(=O)=O)sc(-c3nnc(-c4ccc(C(C)(C)C)cc4)o3)c2C1 [compound 5],> 30000,1500,,,
CC1(C)CC(=O)c2c(S(C)(=O)=O)sc(C(=O)c3ccc(-c4ccccc4)cc3)c2C1 [compound 6],> 30000,1430,,,
Cc1ccc(-c2cccc(C(=O)NC(Cc3ccc(-c4noc(-c5ccc(NC(=O)OC(C)(C)C)cc5)n4)c(F)c3)C(=O)O)c2)cc1 (centres unmarked) [compound 9],1400,1500,,,
Clc1nc2c(-c3ccccc3)nnn2c2ccccc12 [compound 11],,,> 33,> 30000,EC50 (human GLP-1R [2]; [7]): 7000 nM
CS(=O)(=O)c1nc(-c2ccccc2)cc(-c2ccccc2)c1C#N [compound 12],,,> 33,> 30000,EC50 (human GLP-1R [2]; [7]): 6000 nM
CCOC(=O)c1ccc(N2Cc3ccccc3C(=Cc3ccc(Br)cc3)C2=N)cc1 [compound 13],,,> 33,> 30000,EC50 (human GLP-1R [2]; [7]): 1000 nM
Clc1nc2ccc3nsnc3c2nc1Cl [compound 14],,,> 33,> 30000,
O=S(=O)(c1ccccc1)c1nc(-c2ccccc2)ns1 [compound 15],,,25,> 30000,EC50 (human GLP-1R [2]; [7]): 1300 nM
CS(=NC(=O)Nc1ccc(Cl)cc1)c1sc(Cl)c2c1C(=O)CCC2 (centres unmarked) [compound 16],,,12,> 30000,EC50 (human GLP-1R [2]; [7]): 5200 nM
O=[N+]([O-])c1ccc2nc(S(=O)(=O)c3ccc(Cl)cc3)sc2c1 [compound 17],,,8,> 30000,

# More lines, main results first:
EC50 (human GLP-1R [1]; [4]) [nM],EC50 (human GLP-1R [2]; [5]) [nM],"IC50 (human CatL; read-out: CatL,^c IC50) [µM]",EC50 (human GLP-1R [1]; [6]) [nM],SMILES,also measured
> 30000,1300,> 33,,"CC[S+]([O-])c1nc(-c2cccc(OCc3ccccc3)c2)cc(C(F)(F)F)n1 (centres unmarked) [BETP, 4-(3-benzyloxyphenyl)-2-ethylsulfinyl-6-(trifluoromethyl)pyrimidine]","anti-FLAG immunoprecipitation, PAGE fluorography (human GLP-1R [3]): The finding that [^3H]BETP irreversibly labels the GLP-1R"
> 30000,4700,,,FC(F)(F)c1nc2cc(Cl)c(Cl)cc2nc1Cl [compound 3],
,> 30000,,,FC(F)(F)c1nc2ccccc2nc1Sc1ccc(Cl)cc1 [compound 7],
,> 30000,,,O=C(Oc1cccc(-c2cn3cc(C(F)(F)F)cc(Cl)c3n2)c1)C1CCCCC1 [compound 8],
,,,> 30000,CC(=O)NC1=C(Cl)C(=O)c2ccccc2C1=O [compound 18],
,,,> 30000,O=C1C=CC(=O)N1c1cccc(C(F)(F)F)c1 [compound 19],
,> 30000,,,"CCSc1nc(-c2cccc(OCc3ccccc3)c2)cc(C(F)(F)F)n1 [th-BETP, 4-(3-benzyloxyphenyl)-2-ethylsulfanyl-6-(trifluoromethyl)pyrimidine]",
